Data published in the supplement of paper PMC7017272.
± gives the standard deviation of the averaged measurements.

How the values were obtained:
UT-SCC-81 [1] = assay: maximal % inhibition of viability relative to DMSO; higher = stronger effect; details: treatment time: 3 days
Protocol: (§1)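 HNSCC cell lines (500 cells/well, 384-well) were cultured on plastic, on top of (2D) or embedded (3D) in Matrigel or human leiomyoma matrix Myogel (500 ug/mL; Myogel 3D mixed with rat collagen I). Cells were treated for 3 days with 5 ten-fold concentrations of each drug, and viability was read by CellTiter-Glo. Viability was normalised to DMSO and benzethonium chloride controls and fitted with the FIMM DSRT pipeline to give IC50 (nM), maximal % inhibition and DSS. Suffixes _1/_2/_3 are replicates. Only inhibition-mode (IC50) fits are kept.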

UT-SCC-8 = assay: as above; details: treatment time: 3 days
Protocol: as §1

UT-SCC-24B [2] = assay: as above; details: treatment time: 3 days
Protocol: as §1

UT-SCC-14 [3] = assay: as above; details: treatment time: 3 days
Protocol: as §1

UT-SCC-40 [4] = assay: as above; details: treatment time: 3 days
Protocol: as §1

UT-SCC-42B [5] = assay: as above; details: treatment time: 3 days
Protocol: as §1

UT-SCC-28 [6] = assay: as above; details: treatment time: 3 days
Protocol: as §1

UT-SCC-42A [7] = assay: as above; details: treatment time: 3 days
Protocol: as §1

UT-SCC-24A = assay: relative IC50 (midpoint of the fitted curve; maximal inhibition may be below 50%); higher = less potent; details: treatment time: 3 days
Protocol: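 HNSCC cell lines (500 cells/well, 384-well) were cultured on plastic, on top of (2D) or embedded (3D) in Matrigel or human leiomyoma matrix Myogel (500 ug/mL; Myogel 3D mixed with rat collagen I). Cells were treated for 3 days with 5 ten-fold concentrations of each drug, and viability was read by CellTiter-Glo. Viability was normalised to DMSO (0% inhibition) and 100 uM benzethonium chloride (100% inhibition) controls and fitted with the FIMM DSRT pipeline to give IC50 (nM), maximal % inhibition and the drug sensitivity score (DSS). Suffixes _1/_2/_3 on drug names are replicates.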

UT-SCC-81 [8] = assay: relative IC50 (midpoint of the fitted curve; maximal inhibition may be below 50%); higher = less potent; details: treatment time: 3 days
Method in brief: (§2)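 Viability of HPV-negative HNSCC cell lines was measured by CellTiter-Glo 2.0 luminescence. Cells were seeded at 500 cells/well in 384-well plates on plastic, on Matrigel- or Myogel-coated wells (500 µg/mL), or embedded in Matrigel or Myogel plus rat collagen I, then given compounds at five 10-fold concentrations for 3 days, with signals normalised to vehicle (0.1% DMSO) and cell-killing control wells. Fitting of percent-inhibition dose–response curves in the FIMM pipeline yielded IC50, maximal inhibition and drug sensitivity score.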

UT-SCC-24B [9] = assay: as above; details: treatment time: 3 days
Method in brief: as §2

UT-SCC-44 = assay: as above; details: treatment time: 3 days
Method in brief: as §2

UT-SCC-73 = assay: as above; details: treatment time: 3 days
Method in brief: as §2

UT-SCC-14 [10] = assay: as above; details: treatment time: 3 days
Method in brief: as §2

UT-SCC-40 [11] = assay: as above; details: culture condition: plastic 2D (no matrix); treatment time: 3 days
Method in brief: as §2

UT-SCC-42B [12] = assay: as above; details: culture condition: on top of Myogel; treatment time: 3 days
Method in brief: as §2

UT-SCC-28 [13] = assay: as above; details: treatment time: 3 days
Method in brief: as §2

UT-SCC-42A [14] = assay: as above; details: treatment time: 3 days
Method in brief: as §2

[15] = culture condition: embedded in Matrigel
[16] = culture condition: embedded in Myogel + collagen I
[17] = culture condition: on top of Matrigel
[18] = culture condition: on top of Myogel
[19] = culture condition: plastic 2D (no matrix)

CO[C@H]1C[C@@H]2CC[C@@H](C)[C@@](O)(O2)C(=O)C(=O)N2CCCC[C@H]2C(=O)O[C@H]([C@H](C)C[C@@H]2CC[C@@H](O)[C@H](OC)C2)CC(=O)[C@H](C)/C=C(\C)[C@@H](O)[C@@H](OC)C(=O)[C@H](C)C[C@H](C)/C=C/C=C/C=C/1C [Sirolimus]
maximal % inhibition of viability (UT-SCC-81 [1]; [15]): 89.7 ± 3.3% | maximal % inhibition of viability (UT-SCC-81 [1]; [16]): 80 ± 4.9% | maximal % inhibition of viability (UT-SCC-81 [1]; [17]): 82.1 ± 1.4% | maximal % inhibition of viability (UT-SCC-81 [1]; [18]): 77.3 ± 1.9% | maximal % inhibition of viability (UT-SCC-81 [1]; [19]): 78.8 ± 3.2% | maximal % inhibition of viability (UT-SCC-8; [15]): 96.37 ± 0.95% | maximal % inhibition of viability (UT-SCC-8; [16]): 94.2 ± 1.6% | maximal % inhibition of viability (UT-SCC-8; [17]): 95.77 ± 0.31% | maximal % inhibition of viability (UT-SCC-8; [18]): 94.7 ± 0.35% | maximal % inhibition of viability (UT-SCC-8; [19]): 95.07 ± 0.45% | maximal % inhibition of viability (UT-SCC-24B [2]; [15]): 93.17 ± 0.71% | maximal % inhibition of viability (UT-SCC-24B [2]; [16]): 93.9 ± 1.8% | maximal % inhibition of viability (UT-SCC-24B [2]; [17]): 91.5 ± 0.2% | maximal % inhibition of viability (UT-SCC-24B [2]; [18]): 91.1 ± 2.1% | maximal % inhibition of viability (UT-SCC-24B [2]; [19]): 90.4 ± 1.4% | maximal % inhibition of viability (UT-SCC-14 [3]; [15]): 73.1 ± 6.3% | maximal % inhibition of viability (UT-SCC-14 [3]; [16]): 60.2 ± 7.8% | maximal % inhibition of viability (UT-SCC-14 [3]; [17]): 70.8 ± 8.7% | maximal % inhibition of viability (UT-SCC-14 [3]; [18]): 66.2 ± 9% | maximal % inhibition of viability (UT-SCC-14 [3]; [19]): 64.4 ± 6.4% | maximal % inhibition of viability (UT-SCC-40 [4]; [15]): 91.7 ± 5% | maximal % inhibition of viability (UT-SCC-40 [4]; [16]): 92 ± 2% | maximal % inhibition of viability (UT-SCC-40 [4]; [17]): 86.8 ± 0.91% | maximal % inhibition of viability (UT-SCC-40 [4]; [18]): 75.6 ± 0.97% | maximal % inhibition of viability (UT-SCC-40 [4]; [19]): 79.1 ± 2.9% | maximal % inhibition of viability (UT-SCC-42B [5]; [15]): 85 ± 3.7% | maximal % inhibition of viability (UT-SCC-42B [5]; [17]): 76.5 ± 1.4% | maximal % inhibition of viability (UT-SCC-42B [5]; [18]): 76.5 ± 1.6% | maximal % inhibition of viability (UT-SCC-42B [5]; [19]): 74.1 ± 2.6% | maximal % inhibition of viability (UT-SCC-28 [6]; [15]): 35 ± 13% | maximal % inhibition of viability (UT-SCC-28 [6]; [16]): 57.3 ± 1.4% | maximal % inhibition of viability (UT-SCC-28 [6]; [17]): 43.7 ± 4.2% | maximal % inhibition of viability (UT-SCC-28 [6]; [19]): 34.8 ± 4.6% | maximal % inhibition of viability (UT-SCC-42A [7]; [15]): 66.8 ± 8.8% | maximal % inhibition of viability (UT-SCC-42A [7]; [16]): 52.5 ± 2.1% | maximal % inhibition of viability (UT-SCC-42A [7]; [17]): 64.7 ± 1.1% | maximal % inhibition of viability (UT-SCC-42A [7]; [18]): 61.33 ± 0.42% | maximal % inhibition of viability (UT-SCC-42A [7]; [19]): 55.5 ± 0.36% | relative IC50 (UT-SCC-24A; [16]): 1.86 nM | relative IC50 (UT-SCC-24A; [18]): 2.01 nM | relative IC50 (UT-SCC-81 [8]; [16]): 2.71 nM | relative IC50 (UT-SCC-81 [8]; [17]): 1.95 nM | relative IC50 (UT-SCC-81 [8]; [18]): 1.55 nM | relative IC50 (UT-SCC-81 [8]; [19]): 1.4 nM | relative IC50 (UT-SCC-24B [9]; [15]): 0.965 nM | relative IC50 (UT-SCC-24B [9]; [18]): 2.6 nM | relative IC50 (UT-SCC-24B [9]; [19]): 2.95 nM | relative IC50 (UT-SCC-44; [16]): 2.41 nM | relative IC50 (UT-SCC-44; [17]): 1.79 nM | relative IC50 (UT-SCC-44; [19]): 1.88 nM | relative IC50 (UT-SCC-73; [16]): 26.3 nM | relative IC50 (UT-SCC-73; [18]): 12 nM | relative IC50 (UT-SCC-73; [19]): 31.8 nM | relative IC50 (UT-SCC-14 [10]; [15]): 0.687 nM | relative IC50 (UT-SCC-14 [10]; [16]): 0.9 nM | relative IC50 (UT-SCC-14 [10]; [17]): 1.24 nM | relative IC50 (UT-SCC-14 [10]; [18]): 1.06 nM | relative IC50 (UT-SCC-40 [11]): > 98.9 nM | relative IC50 (UT-SCC-42B [12]): > 98.9 nM | relative IC50 (UT-SCC-28 [13]; [15]): 2.04 nM | relative IC50 (UT-SCC-28 [13]; [17]): 1.16 nM | relative IC50 (UT-SCC-28 [13]; [19]): 1.2 nM | relative IC50 (UT-SCC-42A [14]; [16]): 3.22 nM | relative IC50 (UT-SCC-42A [14]; [17]): 2.37 nM | relative IC50 (UT-SCC-42A [14]; [18]): 2.33 nM | relative IC50 (UT-SCC-42A [14]; [19]): 2.24 nM
